Data as given in patent US10221144B2, “Antibacterial compounds having broad spectrum of activity” (priority 2014, dated 2019).
Where two headings read alike, the source gives them in different places.

Columns and labels:
Format in all cases: biochemical
[1] = target: T1, S. aureus Topoisomerase IV (Staphylococcus aureus, UniProt P0C1S7+P0C1U9); experiment: Topoisomerase IV decatenation assay (S. aureus)
T1 construct: purchased Inspiralis, UK
Procedure: (§1) The above compounds were tested for the inhibition of the enzyme DNA gyrase in a gyrase supercoiling assay and for the inhibition of the enzyme topoisomerase IV in a decatenation assay, in both Gram positive and Gram negative bacteria, according to the following methods.
(§2) Both the assays were carried out according to a set-up method modified from the article to Blanche F, et al. “Differential Behaviors of Staphylococcus aureus and Escherichia coli Type II DNA Topoisomerases”, Antimicrob. Agents Chemother., 1996, Vol. 40, No. 12 p. 2714-2720.
(§3) The compounds were screened at single concentration (200, 100 or 50 μM), in duplicate.
(§4) S. aureus and E. coli Topoisomerase IV decatenation kits (Inspiralis, UK) were used. A master mix with a total volume sufficient for the number of reactions to perform was prepared with the following reagents: 5× assay buffer (50 mM HEPES-KOH (pH 7.6), 100 mM potassium glutamate, 10 mM magnesium acetate, 10 mM DTT, 1 mM ATP, 50 μg/ml albumin), kDNA substrate (200 ng/reaction), RNase-DNase free water. Aliquots of this mix were dispensed in each tube, then 10× compound stock solutions or vehicle control (DMSO), were added in each reaction tube.
(§5) Reaction was started with Topoisomerase IV enzyme (0.5 U/reaction) addition.
(§6) A sample added with an equal volume of dilution buffer was used as negative control (without enzyme).
(§7) The reaction tubes were gentle vortexed and incubated 30 minutes at 37° C. Each reaction was stopped by adding 30 μl of Stop Buffer and 30 μl of chloroform/isoamyl alcohol (24/1), briefly vortexed for 5-10 seconds and centrifuged at 20000×g for 2 minutes. Samples taken from the upper phase were loaded into 1% agarose gel and subjected to electrophoresis for 1 hour at 80V constant voltage in TAE (40 mM Tris-acetate, 2 mM EDTA).
(§8) Data acquisition and analysis. Due to the high molecular mass, kDNA could not enter an agarose gel under normal electrophoresis conditions, but remained in the wells. In the presence of Topo IV topoisomerase mini-circles (2.5 Kb) were released from kDNA by decatenation and were quickly and easily resolved in the gel at relatively high voltages.
(§9) Bands were visualized by ethidium bromide staining (dil 1:20000) for 30 minutes followed by destaining in distilled water for 10 minutes.
(§10) For single concentration screening assay, in order to evaluate the compounds activity on the enzymes, the bands of decatenated DNAs in the gel were photographed by a digital imaging system ImageQuant LAS 4000 (GE Healthcare) according to manufacturer's instructions.
(§11) The fluorescent intensity of each band was analyzed by ImageQuant TL software and it was expressed as volume (volume of the uncalibrated quantity of material in the image feature after subtraction of the background intensity by using rolling ball method).
(§12) Each band intensity was compared, as percentage, to vehicle sample band intensity, which served as positive control, on the same gel.
(§13) Inhibitory activity was expressed as percent of inhibition versus the positive control.
(§14) The supercoiled or decatenated DNA bands obtained as described in Example 1 were analysed as follows.
(§15) Bands were analyzed by gel documentation equipment (Syngene, Cambridge, UK) and quantitated using Syngene Gene Tools software. Raw gel data (fluorescent band volumes) collected from Syngene, GeneTools gel analysis software were converted to a percentage of the 100% control (the fully supercoiled or decatenated DNA band). […] The IC50 data were calculated by using the global curve fit non-linear regression tool by selecting the Single, 2 Parameter fit function from the Exponential Decay equation category.

E. coli Topoisomerase IV = target: T2, E. coli Topoisomerase IV (Escherichia coli, UniProt P0AFI2+P20083); experiment: Topoisomerase IV decatenation assay (E. coli)
T2 construct: purchased Inspiralis, UK
T2 sequence (P20083 whole entry): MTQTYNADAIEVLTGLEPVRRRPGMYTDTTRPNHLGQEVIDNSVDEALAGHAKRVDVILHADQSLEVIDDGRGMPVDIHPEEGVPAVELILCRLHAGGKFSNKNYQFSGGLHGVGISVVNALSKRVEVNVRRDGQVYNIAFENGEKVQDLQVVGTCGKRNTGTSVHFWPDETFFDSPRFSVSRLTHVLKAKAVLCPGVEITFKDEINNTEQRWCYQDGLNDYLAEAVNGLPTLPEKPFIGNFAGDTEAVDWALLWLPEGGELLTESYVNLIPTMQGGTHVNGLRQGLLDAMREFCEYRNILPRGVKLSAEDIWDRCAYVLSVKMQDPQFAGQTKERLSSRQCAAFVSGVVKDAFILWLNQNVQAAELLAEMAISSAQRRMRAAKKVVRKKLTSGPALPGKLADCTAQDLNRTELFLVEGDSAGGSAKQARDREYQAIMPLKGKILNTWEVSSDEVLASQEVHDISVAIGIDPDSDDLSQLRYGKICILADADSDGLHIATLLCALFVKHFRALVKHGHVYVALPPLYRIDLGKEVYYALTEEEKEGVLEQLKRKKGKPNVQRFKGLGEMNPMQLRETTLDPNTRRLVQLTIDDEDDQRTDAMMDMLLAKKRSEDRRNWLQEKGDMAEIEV
T2 sequence (P0AFI2 whole entry): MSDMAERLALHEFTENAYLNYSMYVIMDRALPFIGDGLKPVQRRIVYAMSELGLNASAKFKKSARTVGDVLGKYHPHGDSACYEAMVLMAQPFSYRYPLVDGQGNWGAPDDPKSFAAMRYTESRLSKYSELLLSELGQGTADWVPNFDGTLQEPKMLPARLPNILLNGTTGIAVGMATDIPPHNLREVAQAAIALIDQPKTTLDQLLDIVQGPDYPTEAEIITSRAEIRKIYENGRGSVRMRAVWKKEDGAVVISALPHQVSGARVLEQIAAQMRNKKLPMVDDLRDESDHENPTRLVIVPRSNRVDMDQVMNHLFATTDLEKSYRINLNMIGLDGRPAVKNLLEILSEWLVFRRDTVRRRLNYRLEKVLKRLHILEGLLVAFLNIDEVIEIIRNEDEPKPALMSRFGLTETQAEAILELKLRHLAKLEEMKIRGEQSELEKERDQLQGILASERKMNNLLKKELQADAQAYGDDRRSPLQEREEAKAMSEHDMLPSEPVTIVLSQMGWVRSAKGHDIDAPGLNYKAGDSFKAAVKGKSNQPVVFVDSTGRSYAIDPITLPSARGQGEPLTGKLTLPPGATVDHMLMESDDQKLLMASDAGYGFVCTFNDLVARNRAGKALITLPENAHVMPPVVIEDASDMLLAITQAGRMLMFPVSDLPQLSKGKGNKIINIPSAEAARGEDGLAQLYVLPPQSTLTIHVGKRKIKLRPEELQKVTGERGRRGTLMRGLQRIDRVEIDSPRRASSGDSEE
Procedure: as §1, §2, §3, §4, §5, §6, §7, §8, §9, §10, §11, §12, §13, §14, §15

E. coli DNA gyrase = target: T3, E. coli DNA gyrase (Escherichia coli, UniProt P0AES4+P0AES6); experiment: DNA gyrase supercoiling assay (E. coli)
T3 construct: purchased Inspiralis, UK
Procedure: as §1, §2, §3
(§16) Reagents from S. aureus and E. coli Gyrase Supercoiling Assay kits (Inspiralis, UK) were used. A master mix with a total volume sufficient for the number of reactions to perform was prepared with the following reagents: 5× assay buffer, relaxed pBR322 substrate (0.5 μg/reaction), RNase-DNase free water. Aliquotes of this mix were dispensed in each tube, then 10× compound stock solutions or vehicle control (DMSO), were added to each reaction tube.
(§17) Reaction was started with E. Coli (2 U/reaction) or S. aureus (1 U/reaction) gyrase enzyme addition.
as §6
(§18) The reaction tubes were gentle vortexed and incubated 30 minutes at 37° C. Each reaction was stopped by adding 30 μl of Stop Buffer and 30 μl chloroform/isoamyl alcohol (24/1), briefly vortexed for 5-10 seconds and centrifuged at 20000×g for 2 minutes. Samples were loaded onto 1% agarose gel and subjected to electrophoresis for 1 hour at 80V constant voltage in TAE (40 mM Tris-acetate, 2 mM EDTA).
(§19) Data acquisition and analysis. Treatment of relaxed pBR322 with DNA gyrase converted the relaxed topoisomers (DNAs of different linking number) to the supercoiled form of the plasmid, which migrates faster on an agarose gel. An upper band might also be visible, which consists of open-circular (nicked) DNA which is present in the relaxed substrate but co-migrates with some of the relaxed topoisomers.
(§20) Bands were visualized by ethidium bromide staining (dilution 1:20000) for 30 minutes followed by destaining in distilled water for 10 minutes.
(§21) In order to evaluate the compounds activity on the enzyme, the bands of supercoiled DNAs in the gel were photographed by a digital imaging system ImageQuant LAS 4000 (GE Healthcare) according to manufacturer's instructions.
as §11, §12, §13, §14, §15

S. aureus DNA gyrase = target: T4, S. aureus DNA gyrase (Staphylococcus aureus, UniProt P0A0K8+P20831); experiment: DNA gyrase supercoiling assay (S. aureus)
T4 construct: purchased Inspiralis, UK
T4 sequence (P0A0K8 whole entry): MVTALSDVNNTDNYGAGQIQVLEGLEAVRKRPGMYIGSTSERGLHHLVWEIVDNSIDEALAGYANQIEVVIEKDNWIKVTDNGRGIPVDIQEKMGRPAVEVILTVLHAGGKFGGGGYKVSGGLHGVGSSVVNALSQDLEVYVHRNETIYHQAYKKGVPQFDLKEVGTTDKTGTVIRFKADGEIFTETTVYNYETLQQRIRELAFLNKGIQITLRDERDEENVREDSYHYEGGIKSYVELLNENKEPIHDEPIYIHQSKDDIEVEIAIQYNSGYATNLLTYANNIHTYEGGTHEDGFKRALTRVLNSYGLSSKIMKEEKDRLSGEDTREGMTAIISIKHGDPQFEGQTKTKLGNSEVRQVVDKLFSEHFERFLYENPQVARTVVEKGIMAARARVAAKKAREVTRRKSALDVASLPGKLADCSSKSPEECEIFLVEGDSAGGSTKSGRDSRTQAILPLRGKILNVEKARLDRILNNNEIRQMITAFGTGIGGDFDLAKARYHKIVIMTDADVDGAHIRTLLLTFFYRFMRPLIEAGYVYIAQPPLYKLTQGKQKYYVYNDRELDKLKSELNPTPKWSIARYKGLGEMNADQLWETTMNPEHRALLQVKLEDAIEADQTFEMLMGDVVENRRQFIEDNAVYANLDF
T4 sequence (P20831 whole entry): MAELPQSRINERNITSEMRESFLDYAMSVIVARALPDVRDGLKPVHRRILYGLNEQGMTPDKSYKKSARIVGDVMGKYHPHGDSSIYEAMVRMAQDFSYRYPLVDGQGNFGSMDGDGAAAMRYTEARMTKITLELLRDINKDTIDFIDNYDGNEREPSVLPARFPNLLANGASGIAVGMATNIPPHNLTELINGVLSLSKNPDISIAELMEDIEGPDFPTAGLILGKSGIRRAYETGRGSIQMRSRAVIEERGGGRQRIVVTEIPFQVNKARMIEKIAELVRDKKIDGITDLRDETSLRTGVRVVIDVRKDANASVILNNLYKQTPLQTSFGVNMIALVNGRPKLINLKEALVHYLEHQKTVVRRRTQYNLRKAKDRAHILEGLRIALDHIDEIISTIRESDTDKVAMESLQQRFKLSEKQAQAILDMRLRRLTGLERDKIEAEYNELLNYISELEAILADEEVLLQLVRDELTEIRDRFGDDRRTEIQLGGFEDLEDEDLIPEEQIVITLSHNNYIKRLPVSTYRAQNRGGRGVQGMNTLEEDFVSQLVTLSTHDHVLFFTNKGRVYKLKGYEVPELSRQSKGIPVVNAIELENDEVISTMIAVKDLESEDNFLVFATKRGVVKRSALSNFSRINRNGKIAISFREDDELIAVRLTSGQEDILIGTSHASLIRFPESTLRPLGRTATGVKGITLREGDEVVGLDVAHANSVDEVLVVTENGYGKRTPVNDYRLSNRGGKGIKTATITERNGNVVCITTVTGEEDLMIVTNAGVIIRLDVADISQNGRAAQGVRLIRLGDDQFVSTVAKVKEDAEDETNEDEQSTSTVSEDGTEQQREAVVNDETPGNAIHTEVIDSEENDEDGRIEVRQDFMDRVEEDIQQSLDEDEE
Procedure: as §1, §2, §3, §16, §17, §6, §18, §19, §20, §21, §11, §12, §13, §14, §15

[2] = S. aureus, conc. 50 μM, n/a = not active
[3] = S. aureus, concentration-response curve, eight half-log concentrations 0.1 to 300 μM, read-out: IC50 Topo IV
[4] = E. coli, conc. 50 μM, n/a = not active
[5] = E. coli, concentration-response curve, eight half-log concentrations 0.1 to 300 μM, read-out: IC50 Topo IV
[6] = E. coli, concentration-response curve, eight half-log concentrations 0.1 to 300 μM, read-out: IC50 DNA gyrase
[7] = S. aureus, concentration-response curve, eight half-log concentrations 0.1 to 300 μM, read-out: IC50 DNA gyrase
[8] = S. aureus, conc. 100 μM, n/a = not active
[9] = E. coli, conc. 100 μM, n/a = not active
[10] = S. aureus, conc. 100 μM, n/a = not active, read-out: % inhibition Topo IV
[11] = E. coli, conc. 100 μM, n/a = not active, read-out: % inhibition Topo IV
[12] = E. coli, conc. 50 μM, n/a = not active, read-out: % inhibition Topo IV
[13] = S. aureus, conc. 50 μM, n/a = not active, read-out: % inhibition Topo IV

T1 sequence (P0C1S7 whole entry): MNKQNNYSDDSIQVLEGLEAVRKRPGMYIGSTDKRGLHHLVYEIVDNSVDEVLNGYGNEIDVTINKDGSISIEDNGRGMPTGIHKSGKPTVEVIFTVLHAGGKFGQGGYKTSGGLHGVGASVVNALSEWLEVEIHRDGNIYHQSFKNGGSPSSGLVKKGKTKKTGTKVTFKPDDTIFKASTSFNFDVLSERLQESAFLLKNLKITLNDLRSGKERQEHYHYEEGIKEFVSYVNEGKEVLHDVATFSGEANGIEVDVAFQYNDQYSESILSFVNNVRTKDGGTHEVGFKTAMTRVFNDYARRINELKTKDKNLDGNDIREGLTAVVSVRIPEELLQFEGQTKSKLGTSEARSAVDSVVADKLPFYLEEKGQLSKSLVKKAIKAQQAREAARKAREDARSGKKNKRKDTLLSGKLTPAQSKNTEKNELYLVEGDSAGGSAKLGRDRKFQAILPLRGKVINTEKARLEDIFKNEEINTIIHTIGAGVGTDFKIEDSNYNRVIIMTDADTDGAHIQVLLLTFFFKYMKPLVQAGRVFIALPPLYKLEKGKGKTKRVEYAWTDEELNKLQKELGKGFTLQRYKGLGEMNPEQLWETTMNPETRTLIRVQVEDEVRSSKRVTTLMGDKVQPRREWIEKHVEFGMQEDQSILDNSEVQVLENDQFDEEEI
T1 sequence (P0C1U9 whole entry): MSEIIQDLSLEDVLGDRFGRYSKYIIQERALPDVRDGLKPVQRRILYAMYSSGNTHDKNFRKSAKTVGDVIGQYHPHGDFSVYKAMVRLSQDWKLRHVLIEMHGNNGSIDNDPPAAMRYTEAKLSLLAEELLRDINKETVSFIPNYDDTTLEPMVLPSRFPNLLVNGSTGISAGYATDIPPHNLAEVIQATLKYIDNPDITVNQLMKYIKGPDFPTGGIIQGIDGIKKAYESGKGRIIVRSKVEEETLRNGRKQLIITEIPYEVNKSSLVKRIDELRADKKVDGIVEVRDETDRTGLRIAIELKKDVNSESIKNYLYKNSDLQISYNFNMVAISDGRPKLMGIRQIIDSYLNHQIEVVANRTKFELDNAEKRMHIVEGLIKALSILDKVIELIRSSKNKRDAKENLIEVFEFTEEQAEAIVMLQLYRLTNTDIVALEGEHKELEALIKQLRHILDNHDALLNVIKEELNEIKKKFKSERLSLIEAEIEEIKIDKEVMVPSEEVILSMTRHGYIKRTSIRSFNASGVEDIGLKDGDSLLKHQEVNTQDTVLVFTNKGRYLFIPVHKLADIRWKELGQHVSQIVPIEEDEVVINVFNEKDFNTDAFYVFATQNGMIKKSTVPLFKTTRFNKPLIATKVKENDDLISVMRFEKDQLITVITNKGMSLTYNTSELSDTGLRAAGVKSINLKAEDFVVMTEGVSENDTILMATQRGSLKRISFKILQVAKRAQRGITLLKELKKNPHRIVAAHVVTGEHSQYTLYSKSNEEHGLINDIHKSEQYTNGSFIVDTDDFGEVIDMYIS

Row | Molecule | IC50 (E. coli Topoisomerase IV) | IC50 (E. coli DNA gyrase) | IC50 (S. aureus DNA gyrase) | inhibition at 50 µM (E. coli Topoisomerase IV; [12]) | inhibition at 50 µM (E. coli DNA gyrase; [4]) | inhibition at 50 µM (S. aureus DNA gyrase; [2]) | other results
1 | 7-methoxy-1-chloroisoquinoline [Compound 88] | – | – | – | – | – | – | % inhibition Topo IV [1, 2]: 88%; IC50 [1, 3]: 6700 nM; % inhibition Topo IV (E. coli Topoisomerase IV; [4]): 100%; IC50 (E. coli Topoisomerase IV; [5]): 900 nM; % inhibition DNA gyrase (E. coli DNA gyrase; [4]): 100%; IC50 (E. coli DNA gyrase; [6]): 3200 nM; % inhibition DNA gyrase (S. aureus DNA gyrase; [2]): 100%; IC50 (S. aureus DNA gyrase; [7]): 1100 nM
2 | 7-methyl-1-chloroisoquinoline [Compound 72] | – | – | – | – | – | – | % inhibition Topo IV [1, 8]: 76%; IC50 [1, 3]: 52000 nM; % inhibition Topo IV (E. coli Topoisomerase IV; [9]): 91%; IC50 (E. coli Topoisomerase IV; [5]): 3800 nM; % inhibition DNA gyrase (E. coli DNA gyrase; [9]): 98%; IC50 (E. coli DNA gyrase; [6]): 2600 nM; % inhibition DNA gyrase (S. aureus DNA gyrase; [8]): 97%; IC50 (S. aureus DNA gyrase; [7]): 9600 nM
3 | O=c1cc(NCC(O)CN2CCN(c3nccc4ccccc34)CC2)c2ccccc2o1 (racemic) [Compound 59, 4-({2-hydroxy-3-[4-(isoquinolin-1-yl)piperazin-1-yl]propyl}amino)-2H-chromen-2-one] | 16100 nM | 1200 nM | 4400 nM | – | – | – | IC50 [1]: 18500 nM; inhibition at 100 µM [1, 10]: 77%; inhibition at 100 µM (E. coli Topoisomerase IV; [11]): 100%; inhibition at 100 µM (E. coli DNA gyrase; [9]): 81%; inhibition at 100 µM (S. aureus DNA gyrase; [8]): 90%
4 | CCOC(=O)C1CN(c2nccc3ccc(F)cc23)CCC1NCc1cc2c(=O)oc3ccccc3c2[nH]1 (racemic) [Compound 184, ethyl 1-(7-fluoroisoquinolin-1-yl)-4-{[(4-oxo-1,4-dihydro[1]benzopyrano[4,3-b]pyrrol-2-yl)methyl]amino}piperidine-3-carboxylate] | – | – | – | 58% | 68% | 83% | inhibition at 50 µM ([1]; read-out: % inhibition Topo IV): 69%
5 | O=c1cc(NCCCN2CCN(c3nccc4ccccc34)CC2)c2ccccc2o1 [Compound 44, 4-({3-[4-(isoquinolin-1-yl)piperazin-1-yl]propyl}amino)-2H-chromen-2-one] | 10000 nM | 500 nM | 14000 nM | – | – | – | IC50 [1]: 90000 nM; inhibition at 200 µM ([1]; S. aureus, conc. 200 μM, n/a = not active, read-out: % inhibition Topo IV): 65%; inhibition at 200 µM (E. coli Topoisomerase IV; E. coli, conc. 200 μM, n/a = not active, read-out: % inhibition Topo IV): 100%; inhibition at 200 µM (E. coli DNA gyrase; E. coli, conc. 200 μM, n/a = not active): 100%; inhibition at 200 µM (S. aureus DNA gyrase; S. aureus, conc. 200 μM, n/a = not active): 100%
6 | O=c1cc(NCCCN2CCN(c3nccc4ccc(F)cc34)CC2)c2ccccc2o1 [Compound 67, 4-({3-[4-(7-fluoroisoquinolin-1-yl)piperazin-1-yl]propyl}amino)chromen-2-one] | 1700 nM | 800 nM | 2800 nM | – | – | – | IC50 [1]: 11800 nM; inhibition at 100 µM [1, 10]: 100%; inhibition at 100 µM (E. coli Topoisomerase IV; [11]): 100%; inhibition at 100 µM (E. coli DNA gyrase; [9]): 89%; inhibition at 100 µM (S. aureus DNA gyrase; [8]): 97%
7 | O=c1cc(NCCNC2CCN(c3nccc4ccc(F)cc34)CC2)c2cc(F)ccc2o1 [Compound 131, 6-fluoro-4-[(2-{[1-(7-fluoroisoquinolin-1-yl)piperidin-4-yl]amino}ethyl)amino]-2H-chromen-2-one] | – | – | – | 100% | 100% | 81% | inhibition at 50 µM [1, 13]: 78%
8 | O=c1oc2ccccc2c2[nH]c(CCN3CCN(c4nccc5ccc(F)cc45)CC3)nc12 [Compound 143, 2-{2-[4-(7-fluoroisoquinolin-1-yl)piperazin-1-yl]ethyl}chromeno[3,4-d]imidazol-4(1H)-one] | – | – | – | 91% | 96% | 89% | –
9 | O=c1oc2ccccc2c2[nH]c(CNC3CCN(c4nccc5ccc(F)cc45)CC3)cc12 [Compound 145, 2-({[1-(7-fluoroisoquinolin-1-yl)piperidin-4-yl]amino}methyl)[1]benzopyrano[4,3-b]pyrrol-4(1H)-one] | – | – | – | 100% | 99% | 97% | –
10 | O=c1oc2ccccc2c2[nH]c(CNC3CCN(c4nccc5ccc(F)cc45)CC3)nc12 [Compound 146, 2-({[1-(7-fluoroisoquinolin-1-yl)piperidin-4-yl]amino}methyl)[1]benzopyrano[3,4-d]imidazol-4(1H)-one] | – | – | – | 100% | 91% | 93% | –
11 | O=c1oc2ccccc2c2[nH]c(CCCN3CCN(c4nccc5ccc(F)cc45)CC3)nc12 [Compound 147, 2-{3-[4-(7-fluoroisoquinolin-1-yl)piperazin-1-yl]propyl}[1]benzopyrano[3,4-d]imidazol-4(1H)-one] | – | – | – | 74% | 84% | 85% | –
12 | O=c1nc(NCC(O)CN2CCN(c3nccc4ccc(F)cc34)CC2)c2cc(F)ccc2o1 (stereo not drawn) [Compound 148, 6-fluoro-4-({3-[4-(7-fluoroisoquinolin-1-yl)piperazin-1-yl]-2-hydroxypropyl}amino)-2H-1,3-benzoxazin-2-one] | 120 nM | 420 nM | 24 nM | 100% | 96% | 100% | inhibition at 50 µM [1, 13]: 100%; IC50 [1, 3]: 50 nM
13 | O=c1nc(NCC(O)CN2CCN(c3nc(F)cc4ccc(F)cc34)CC2)c2cc(F)ccc2o1 (stereo not drawn) [Compound 149, 4-({3-[4-(3,7-difluoroisoquinolin-1-yl)piperazin-1-yl]-2-hydroxypropyl}amino)-6-fluoro-2H-1,3-benzoxazin-2-one] | 140 nM | 100 nM | 18 nM | 90% | 90% | 100% | inhibition at 50 µM [1, 13]: 100%; IC50 [1, 3]: 40 nM
14 | Fc1ccc2ccnc(N3CCN(CCNCc4cc5c(cn4)OCCC5)CC3)c2c1 [Compound 150, N-[(3,4-dihydro-2H-pyrano[2,3-c]pyridin-6-yl)methyl]-2-[4-(7-fluoroisoquinolin-1-yl)piperazin-1-yl]ethan-1-amine] | 4240 nM | 17100 nM | 1020 nM | 50% | 50% | 100% | IC50 [1]: 5890 nM; inhibition at 50 µM [1, 13]: 50%
